Reference: patent publication US20090036469A1, “2,6-SUBSTITUTED-4-MONOSUBSTITUTED AMINO-PYRIMIDINE AS PROSTAGLANDIN D2 RECEPTOR ANTAGONISTS” (SANOFI-AVENTIS, priority 2006, published 2009)
Counter-ions that a name gives are not always drawn.

What follows are compounds tested against T1, DP receptor (Homo sapiens, UniProt Q13258) (assay: SPA cAMP assay in human LS174 T cells (human DP functional assay)). Settings: concentration of the compound that produces 50% inhibition in the SPA cAMP assay in human LS174 T cells; PGD2 15 nM final concentration.
T1 construct: the human cell line LS174T, which expresses the endogenous DP receptor; endogenous in cells; host or cells: LS174T human cell line
T1 sequence (Q13258 1-359): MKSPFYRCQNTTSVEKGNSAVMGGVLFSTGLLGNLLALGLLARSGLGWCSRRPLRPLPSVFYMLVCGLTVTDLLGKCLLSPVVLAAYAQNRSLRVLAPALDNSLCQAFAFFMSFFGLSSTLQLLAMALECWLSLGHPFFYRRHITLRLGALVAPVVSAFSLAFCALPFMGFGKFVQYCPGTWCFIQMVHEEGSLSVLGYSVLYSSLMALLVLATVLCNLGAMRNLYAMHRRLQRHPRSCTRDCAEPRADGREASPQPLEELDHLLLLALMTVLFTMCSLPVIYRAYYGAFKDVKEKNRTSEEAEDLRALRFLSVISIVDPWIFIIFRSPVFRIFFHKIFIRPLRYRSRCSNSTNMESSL
Assay type: cell-based
Excerpt: As used in the examples and preparations that follow, as well as the rest of the application, the terms used therein shall have the meanings indicated: “kg” refers to kilograms, “g” refers to grams, “mg” refers to milligrams, “μg” refers to micrograms, “mol” refers to moles, “mmol” refers to millimoles, “M” refers to molar, “mM” refers to millimolar, “μM” refers to micromolar, “nM” refers to nanomolar, “L” refers to liters, “mL” or “ml” refers to milliliters, “μL” refers to microliters, “° C.” refers to degrees Celsius, “mp” or “m.p.” refers to melting point, “bp” or “b.p.” refers to boiling point, “mm of Hg” refers to pressure in millimeters of mercury, “cm” refers to centimeters, “nm” refers to nanometers, “abs.” refers to absolute, “conc.” refers to concentrated, “c” refers to concentration in g/mL, “rt” refers to room temperature, “TLC” refers to thin layer chromatography, “HPLC” refers to high performance liquid chromatography, “i.p.” refers to intraperitoneally, “i.v.” refers to intravenously, “s”=singlet, “d”=doublet; “t”=triplet; “q”=quartet; “m”=multiplet, “dd”=doublet of doublets; “br”=broad, “LC”=liquid chromatograph, “MS”=mass spectrograph, “ESI/MS”=electrospray ionization/mass spectrograph, “RT”=retention time, “M”=molecular ion, “PSI”=pounds per square inch, “DMSO”=dimethyl sulfoxide, “DMF”=N,N-dimethylformamide, “CDI”=1,1′-carbonyldiimidazole, “DCM” or “CH2Cl2”=dichloromethane, “HCl”=hydrochloric acid, “SPA”=Scintillation Proximity Assay, “ATTC”=American Type Culture Collection, “FBS”=Foetal Bovine Serum, “MEM”=Minimal Essential Medium, “CPM”=Counts Per Minute, “EtOAc”=ethyl acetate, “PBS”=Phosphate Buffered Saline, “TMD”=transmembrane domain, “IBMX”=3-isobutyl-1-methylxanthine, “cAMP”=cyclic adenosine monophosphate, “IUPAC”=International Union of Pure and Applied Chemistry, “MHz”=megahertz, “PEG”=polyethylene glycol, “MeOH”=methanol, “N”=normality, “THF”=tetrahydrofuran, “h”=hours, “min”=minute(s), “MeNH2”=methyl amine, “N2”=nitrogen gas, “O.D.”=outer diameter, “MeCN” or “CH3CN”=acetonitrile, “Et2O”=ethyl ether, “Prep LC”=preparatory “flash” liquid chromatography, “SPE”=solid phase extraction, “K2CO3”=potassium carbonate, “Na2CO3”=sodium carbonate, “pmol”=picomolar, “heptane”=n-heptane, “HMBA-AM” resin=4-hydroxymethylbenzoic acid amino methyl resin, “PdCl2(dppf)2”=1,1′-bis(diphenylphosphino)ferrocene-palladium (II) dichloride DCM complex, “˜”=approximately, and “IC50”=concentration of the compound that produces 50% inhibition in the SPA cAMP assay in human LS174 T cells.
The inhibitory effects of the compounds according to the invention are assessed in a human DP functional assay. A cAMP assay is employed using the human cell line LS174T, which expresses the endogenous DP receptor. The protocol is similar to that described previously (Wright D H, Ford-Hutchinson A W, Chadee K, Metters K M, The human prostanoid DP receptor stimulates mucin secretion in LS174T cells, Br J Pharmacol. 131(8):1537-45 (2000)).
Protocol for SPA cAMP Assay in Human LS174 T Cells
Add 50 μL of […] IBMX into 100 mL PBS to make a final concentration of 100 μM and sonicate at 30° C. for 20 minutes.
Dissolve 1 mg PGD2 (FW, 352.5) in 284 μL DMSO to make 10 mM stock solution and store at […]. Before each assay, it is freshly prepared. Add 3 μL of 10 mM stock solution to 20 mL DMSO, mix it thoroughly, and transfer 10 mL to 40 mL PBS.
Compound dilution is carried out in Biomex 2000 (Beckman) using Method 1_cAMP DP 11 points.
5 μL of each compound from the 10 mM stock compound plates is transferred to the wells of a 96-well plate respectively as below.
Fill the plate with 45 μL of DMSO except column 7 is filled with 28 μL DMSO. Pipette column 1 thoroughly, and transfer 12 μL into column 7 parallel. Perform 1:10 serial dilution from column 1 to column 6 and from column 7 to column 11 by transfer 5 μL to 45 μL DMSO to make following concentrations:
Fill a new 96-well plate with 247.5 μL of compound dilution buffer. […]

Row | IC50 | SMILES
1 | 9 nM | COc1nc(NCCc2ccc(Cl)cc2Cl)cc(N2CCC(C(=O)O)C2)n1 (stereo not shown) [Example 1]
2 | 2 nM | COc1nc(NCCc2ccc(OC(F)(F)F)cc2)cc(N2CCCC(C(C)(C)C(=O)O)C2)n1 (stereo not shown) [Example 2, 2-(1-{2-Methoxy-6-[2-(4-trifluoromethoxy-phenyl)-ethylamino]-pyrimidin-4-yl}-piperidin-3-yl)-2-methyl-propionic acid]
3 | 730 nM | COc1nc(NCCc2ccc(Cl)cc2Cl)cc(-c2cc(C(C)(C)O)cc(C(C)(C)O)c2)n1 [Example 3, 2-[3-{6-[2-(2,4-Dichloro-phenyl)-ethylamino]-2-methoxy-pyrimidin-4-yl}-5-(1-hydroxy-1-methyl-ethyl)-phenyl]-propan-2-ol]
4 | 985 nM | COc1nc(NCCc2ccc(Cl)cc2Cl)cc(N2CCCC(N)C2)n1 (stereo not shown) [Example 4, [6-(3-Amino-piperidin-1-yl)-2-methoxy-pyrimidin-4-yl]-[2-(2,4-dichloro-phenyl)-ethyl]-amine]
5 | 26 nM | COc1nc(NCCc2ccc(Cl)cc2Cl)cc(N2CCC(NC(C)=O)CC2)n1 [Example 5(b), N-(1-{6-[2-(2,4-Dichloro-phenyl)-ethylamino]-2-methoxy-pyrimidin-4-yl}-piperidin-4-yl)-acetamide]
6 | 2 nM | COc1nc(NCCc2ccc(Cl)cc2Cl)cc(-c2cccc(C(C)(C)C(=O)NS(=O)(=O)C(C)(C)C)c2)n1 [Example 7(a), 2-Methyl-propane-2-sulfonic acid [2-(3-{6-[2-(2,4-dichloro-phenyl)-ethylamino]-2-methoxy-pyrimidin-4-yl}-phenyl)-2-methyl-propionyl]-amide]
7 | 383 nM | COc1nc(NCCc2ccc(Cl)cc2Cl)cc(-c2cccc(C(C)(C)C(=O)N3CCSCC3)c2)n1 [Example 7(c), 2-(3-{6-[2-(2,4-Dichloro-phenyl)-ethylamino]-2-methoxy-pyrimidin-4-yl}-phenyl)-2-methyl-1-thiomorpholin-4-yl-propan-1-one]
8 | 0.5 nM | COc1nc(NCCc2ccc(Cl)cc2Cl)cc(N2CCCC(CC(=O)O)C2)n1 (stereo not shown) [Example 8, (1-{6-[2-(2,4-Dichloro-phenyl)-ethylamino]-2-methoxy-pyrimidin-4-yl}-piperidin-3-yl)-acetic acid]
9 | 9 nM | COc1nc(NCCc2ccc(OC(F)(F)F)cc2)cc(N2CCCC(C(=O)O)C2)n1 (stereo not shown) [Example 9, 1-{2-Methoxy-6-[2-(4-trifluoromethoxy-phenyl)-ethylamino]-pyrimidin-4-yl}-piperidine-3-carboxylic acid]
10 | 22 nM | COc1nc(NCCc2ccc(OC(F)(F)F)cc2)cc(N2CCCC(C(=O)NS(C)(=O)=O)C2)n1 (stereo not shown) [Example 10, N-(1-{2-Methoxy-6-[2-(4-trifluoromethoxy-phenyl)-ethylamino]-pyrimidin-4-yl}-piperidine-3-carbonyl)-methanesulfonamide]
11 | 1 nM | COc1nc(NCCc2ccc(Cl)cc2Cl)cc(N2CCCC(C(=O)NS(C)(=O)=O)C2)n1 (stereo not shown) [Example 11(a), N-(1-{6-[2-(2,4-Dichloro-phenyl)-ethylamino]-2-methoxy-pyrimidin-4-yl}-piperidine-3-carbonyl)-methanesulfonamide]
12 | 18 nM | COc1nc(NCCc2ccc(Cl)cc2Cl)cc(N2CCCC(C(=O)NS(=O)(=O)C(F)(F)F)C2)n1 (stereo not shown) [Example 11(d), N-(1-{6-[2-(2,4-Dichloro-phenyl)-ethylamino]-2-methoxy-pyrimidin-4-yl}-piperidine-3-carbonyl)-C,C,C-trifluoro-methanesulfonamide]
13 | 4.4 nM | COc1nc(NCCc2ccc(Cl)cc2Cl)cc(N2CCCC(C(=O)Nc3nnn[nH]3)C2)n1 (stereo not shown) [Example 11(e), 1-{6-[2-(2,4-Dichloro-phenyl)-ethylamino]-2-methoxy-pyrimidin-4-yl}-piperidine-3-carboxylic acid (1H-tetrazol-5-yl)-amide]
14 | 14 nM | COc1nc(NCCc2ccc(Cl)cc2Cl)cc(N2CCCC(C(=O)NS(=O)(=O)N(C)C)C2)n1 (stereo not shown) [Example 11(h), N,N-Dimethylamide-2-sulfonic acid 1-{6-[2-(2,4-dichloro-phenyl)-ethylamino]-2-methoxy-pyrimidin-4-yl}-piperidine-3-carboxamide]
15 | 2 nM | COc1nc(NCCc2ccc(OC(F)(F)F)cc2)cc(-c2ccc(C(=O)O)s2)n1 [Example 12, 5-{2-Methoxy-6-[2-(4-trifluoromethoxy-phenyl)-ethylamino]-pyrimidin-4-yl}-thiophene-2-carboxylic acid]
16 | 2 nM | COc1nc(NCCc2ccc(Cl)cc2Cl)cc(-c2ccc3c(c2)CC(C(=O)O)O3)n1 (stereo not shown) [Example 13, 5-{6-[2-(2,4-Dichloro-phenyl)-ethylamino]-2-methoxy-pyrimidin-4-yl}-2,3-dihydro-benzofuran-2-carboxylic acid hydrochloride]
